In brackets after ≈: the same amount, converted by molar mass.
Key:
[1] = test system: M. tuberculosis SRMV2.6 (IMPDH Tyr487Cys); type: cell-based, Mycobacterium tuberculosis
[2] = test system: M. tuberculosis guaB2 cKD mutant; type: cell-based; settings: increase in potency against guaB2 cKD mutant upon guaB2 silencing

SMILES | MIC90 against SRMV2.6 [1] [µM] | other results
Cc1cccc(CC(=O)N2CCN(S(=O)(=O)c3cccc4cnccc34)CC2)c1 [Compound 28, 1-(4-(isoquinolin-5-ylsulfonyl)piperazin-1-yl)-2-(m-tolyl)ethan-1-one] | >250 | –
O=C(Nc1cccc(C(F)(F)F)c1)N1CCN(S(=O)(=O)c2cccc3cnccc23)CC1 [Compound 32, 4-(isoquinolin-5-ylsulfonyl)-N-(3-(trifluoromethyl)phenyl)piperazine-1-carboxamide] | 125 (≈ 58.1 µg/mL) | –
N#Cc1cccc(NC(=O)N2CCN(S(=O)(=O)c3cccc4cnccc34)CC2)c1 [Compound 31, N-(3-cyanophenyl)-4-(isoquinolin-5-ylsulfonyl)piperazine-1-carboxamide] | 31.2 (≈ 13.2 µg/mL) | –
O=C(c1ccccc1)N1CCN(S(=O)(=O)c2cccc3cnccc23)CC1 [Compound 15, [4-(isoquinoline-5-sulfonyl)piperazin-1-yl](phenyl)methanone] | >100 | –
N#Cc1ccc(C(=O)N2CCN(S(=O)(=O)c3cccc4cnccc34)CC2)cc1 [Compound 17, 4-[4-(isoquinoline-5-sulfonyl)piperazine-1-carbonyl]benzonitrile] | 100 (≈ 40.6 µg/mL) | –
COc1cc(C(=O)N2CCN(S(=O)(=O)c3cccc4cnccc34)CC2)cc(OC)c1OC [Compound 20, [4-(isoquinoline-5-sulfonyl)piperazin-1-yl](3,4,5-trimethoxyphenyl)methanone] | >125 | –
O=C(Cc1ccc(F)cc1)N1CCN(S(=O)(=O)c2cccc3cnccc23)CC1 [Compound 29, 2-(4-fluorophenyl)-1-(4-(isoquinolin-5-ylsulfonyl)piperazin-1-yl)ethan-1-one] | >100 | –
O=C(NCCNS(=O)(=O)c1cccc2cnccc12)c1cc([N+](=O)[O-])cc([N+](=O)[O-])c1 [Compound 21, N-{2-[(isoquinoline-5-sulfonyl)amino]ethyl}-3,5-dinitrobenzamide] | 3.9 (≈ 1.74 µg/mL) | fold more active against SRMV2.6 than wild-type M. tuberculosis [1]: 4 fold
Cc1cccc(Cl)c1NC(=O)N1CCN(S(=O)(=O)c2cccc3cnccc23)CC1 [Compound 40, N-(2-chloro-6-methylphenyl)-4-(isoquinolin-5-ylsulfonyl)piperazine-1-carboxamide] | >250 | –
Cc1ccc(NC(=O)N2CCN(S(=O)(=O)c3cccc4cnccc34)CC2)c([N+](=O)[O-])c1 [Compound 39, 4-(isoquinolin-5-ylsulfonyl)-N-(4-methyl-2-nitrophenyl)piperazine-1-carboxamide] | 25 (≈ 11.4 µg/mL) | –
O=C(Nc1ccc(Cl)cc1)N1CCN(S(=O)(=O)c2cccc3cnccc23)CC1 [Compound 33, N-(4-chlorophenyl)-4-(isoquinolin-5-ylsulfonyl)piperazine-1-carboxamide] | >250 | –
O=C(Nc1ccc(Cl)c([N+](=O)[O-])c1)N1CCN(S(=O)(=O)c2cccc3cnccc23)CC1 [Compound 35, N-(4-chloro-3-nitrophenyl)-4-(isoquinolin-5-ylsulfonyl)piperazine-1-carboxamide] | >100 | –
O=C(NC1CCN(S(=O)(=O)c2cccc3cnccc23)CC1)C1CCCCC1 [Compound 4, N-[1-(isoquinoline-5-sulfonyl)piperidin-4-yl]cyclohexanecarboxamide] | >100 | –
O=C(NCCNS(=O)(=O)c1cccc2cnccc12)C1CCCCC1 [Compound 2, N-{2-[(isoquinoline-5-sulfonyl)amino]ethyl}cyclohexanecarboxamide] | >250 | –
O=C(CC1CCC2(CC1)OCCO2)N1CCN(S(=O)(=O)c2cccc3cnccc23)CC1 [Compound 23, 2-(1,4-dioxaspiro[4.5]decan-8-yl)-1-[4-(isoquinoline-5-sulfonyl)piperazin-1-yl]ethan-1-one] | >250 | –
O=C(NCCNS(=O)(=O)c1cccc2cnccc12)C1CCC1 [Compound 10, N-{2-[(isoquinoline-5-sulfonyl)amino]ethyl}cyclobutanecarboxamide] | 100 (≈ 33.3 µg/mL) | –
O=C(Nc1ccc(F)c(Cl)c1)N1CCN(S(=O)(=O)c2cccc3cnccc23)CC1 [Compound 36, N-(3-chloro-4-fluorophenyl)-4-(isoquinolin-5-ylsulfonyl)piperazine-1-carboxamide] | 62.5 (≈ 28.1 µg/mL) | –
O=S(=O)(c1cccc2cnccc12)N1CCN(C(=S)Nc2ccc3c(c2)OCO3)CC1 [Compound 42, N-(benzo[d][1,3]dioxol-5-yl)-4-(isoquinolin-5-ylsulfonyl)piperazine-1-carbothioamide] | >100 | –
O=C(Nc1cccc(Cl)c1Cl)N1CCN(S(=O)(=O)c2cccc3cnccc23)CC1 [Compound 37, N-(2,3-dichlorophenyl)-4-(isoquinolin-5-ylsulfonyl)piperazine-1-carboxamide] | >250 | –
O=C(OCc1ccccc1)N1CCN(S(=O)(=O)c2cccc3cnccc23)CC1 [Compound 49, Benzyl 4-(isoquinolin-5-ylsulfonyl)piperazine-1-carboxylate] | 100 (≈ 41.1 µg/mL) | –

SMILES | MIC90 against SRMV2.6 [1] [µM] | other results
O=C(C1CCCCC1)N1CCN(S(=O)(=O)c2cccc3ccccc23)CC1 [Compound 7, Cyclohexyl[4-(naphthalene-1-sulfonyl)piperazin-1-yl]methanone] | >100 | –
COc1ccc(CC(=O)N2CCN(S(=O)(=O)c3cccc4cnccc34)CC2)c(OC)c1 [Compound 27, 1-[4-(isoquinoline-5-sulfonyl)piperazin-1-yl]-2-(2,4-dimethoxyphenyl)ethan-1-one] | >250 | –
O=C(Nc1ccc2c(c1)OCO2)N1CCC(NS(=O)(=O)c2cccc3cnccc23)CC1 [Compound 43, 4-[(isoquinoline-5-sulfonyl)amino]-N-(2H-1,3-benzodioxol-5-yl)piperidine-1-carboxamide] | >100 | –
O=C(Cc1ccc([N+](=O)[O-])cc1)N1CCN(S(=O)(=O)c2cccc3cnccc23)CC1 [Compound 30, 1-(4-(isoquinolin-5-ylsulfonyl)piperazin-1-yl)-2-(4-nitrophenyl)ethan-1-one] | >250 | –
COc1cccc(CNC(=O)N2CCN(S(=O)(=O)c3cccc4cnccc34)CC2)c1 [Compound 47, 4-(isoquinolin-5-ylsulfonyl)-N-(3-methoxybenzyl)piperazine-1-carboxamide] | – | Hyper-sensitivity to guaB2 cKD [2]: 8-fold
Cc1ccc(NC(=O)N2CCN(S(=O)(=O)c3cccc4cnccc34)CC2)cc1Cl [Compound 38, N-(3-chloro-4-methylphenyl)-4-(isoquinolin-5-ylsulfonyl)piperazine-1-carboxamide] | 100 (≈ 44.5 µg/mL) | –
CC1(C(=O)N2CCN(S(=O)(=O)c3cccc4cnccc34)CC2)CCCCC1 [Compound 12, [4-(isoquinoline-5-sulfonyl)piperazin-1-yl](1-methylcyclohexyl)methanone] | >250 | –
O=C(Cc1cccc(O)c1)N1CCN(S(=O)(=O)c2cccc3cnccc23)CC1 [Compound 25, 2-(3-hydroxyphenyl)-1-[4-(isoquinoline-5-sulfonyl)piperazin-1-yl]ethan-1-one] | >250 | –
N#Cc1cccc(CC(=O)N2CCN(S(=O)(=O)c3cccc4cnccc34)CC2)c1 [Compound 24, 3-{2-[4-(isoquinoline-5-sulfonyl)piperazin-1-yl]-2-oxoethyl}benzonitrile] | >250 | –
O=C(Nc1ccc2c(c1)OCO2)N1CCN(S(=O)(=O)c2cccc3cnccc23)CC1 [Compound 41, N-(benzo[d][1,3]dioxol-5-yl)-4-(isoquinolin-5-ylsulfonyl)piperazine-1-carboxamide] | >100 | –
O=C(C1CCCCC1)N1CCC(NS(=O)(=O)c2cccc3cnccc23)CC1 [Compound 5, N-[1-(cyclohexanecarbonyl)piperidin-4-yl]isoquinoline-5-sulfonamide] | >100 | –
O=C(c1cc([N+](=O)[O-])cc([N+](=O)[O-])c1)N1CCN(S(=O)(=O)c2cccc3cnccc23)CC1 [Compound 19, [4-(isoquinoline-5-sulfonyl)piperazin-1-yl](3,5-dinitrophenyl)methanone] | 100 (≈ 47.1 µg/mL) | –
CC(C)(C)C(=O)N1CCN(S(=O)(=O)c2cccc3cnccc23)CC1 [Compound 11, 1-[4-(isoquinoline-5-sulfonyl)piperazin-1-yl]-2,2-dimethylpropan-1-one] | 100 (≈ 36.1 µg/mL) | –
N#Cc1cccc(C(=O)N2CCN(S(=O)(=O)c3cccc4cnccc34)CC2)c1 [Compound 16, 3-[4-(isoquinoline-5-sulfonyl)piperazine-1-carbonyl]benzonitrile] | 50 (≈ 20.3 µg/mL) | –
Cc1cc2c(S(=O)(=O)N3CCN(C(=O)C4CCCCC4)CC3)cccc2cn1 [Compound 6, Cyclohexyl[4-(3-methylisoquinoline-5-sulfonyl)piperazin-1-yl]methanone] | >100 | –
O=C(NCCNS(=O)(=O)c1cccc2cnccc12)C1CC1 [Compound 9, N-{2-[(isoquinoline-5-sulfonyl)amino]ethyl}cyclopropanecarboxamide] | 100 (≈ 31.9 µg/mL) | –
O=C(Nc1ccc(Cl)c(C(F)(F)F)c1)N1CCN(S(=O)(=O)c2cccc3cnccc23)CC1 [Compound 34, N-(4-chloro-3-(trifluoromethyl)phenyl)-4-(isoquinolin-5-ylsulfonyl)piperazine-1-carboxamide] | 50 (≈ 24.9 µg/mL) | –
CC1CN(S(=O)(=O)c2cccc3cnccc23)CCN1C(=O)C1CCCCC1 (centres unmarked) [Compound 3, Cyclohexyl[4-(isoquinoline-5-sulfonyl)-2-methylpiperazin-1-yl]methanone] | 100 (≈ 40.2 µg/mL) | –
COc1cccc(CC(=O)N2CCN(S(=O)(=O)c3cccc4cnccc34)CC2)c1 [Compound 26, 1-[4-(isoquinoline-5-sulfonyl)piperazin-1-yl]-2-(3-methoxyphenyl)ethan-1-one] | >250 | –
O=C(C1CCCCC1)N1CCN(S(=O)(=O)c2ccc3ccccc3c2)CC1 [Compound 8, Cyclohexyl[4-(naphthalene-2-sulfonyl)piperazin-1-yl]methanone] | >100 | –

— PMC6990405, “Synthesis and Structure–Activity relationship of 1-(5-isoquinolinesulfonyl)piperazine analogues as inhibitors of Mycobacterium tuberculosis IMPDH” (European Journal of Medicinal Chemistry, 2019)
